{"source": "patent US10689366B2", "about": "“Compounds for MALT1 degredation” (Cornell University, priority 2016, dated 2020)", "data": [{"molecular_target": "T1, MALT1 (Homo sapiens, UniProt Q9UDY8)", "T1 sequence (Q9UDY8 1-824)": "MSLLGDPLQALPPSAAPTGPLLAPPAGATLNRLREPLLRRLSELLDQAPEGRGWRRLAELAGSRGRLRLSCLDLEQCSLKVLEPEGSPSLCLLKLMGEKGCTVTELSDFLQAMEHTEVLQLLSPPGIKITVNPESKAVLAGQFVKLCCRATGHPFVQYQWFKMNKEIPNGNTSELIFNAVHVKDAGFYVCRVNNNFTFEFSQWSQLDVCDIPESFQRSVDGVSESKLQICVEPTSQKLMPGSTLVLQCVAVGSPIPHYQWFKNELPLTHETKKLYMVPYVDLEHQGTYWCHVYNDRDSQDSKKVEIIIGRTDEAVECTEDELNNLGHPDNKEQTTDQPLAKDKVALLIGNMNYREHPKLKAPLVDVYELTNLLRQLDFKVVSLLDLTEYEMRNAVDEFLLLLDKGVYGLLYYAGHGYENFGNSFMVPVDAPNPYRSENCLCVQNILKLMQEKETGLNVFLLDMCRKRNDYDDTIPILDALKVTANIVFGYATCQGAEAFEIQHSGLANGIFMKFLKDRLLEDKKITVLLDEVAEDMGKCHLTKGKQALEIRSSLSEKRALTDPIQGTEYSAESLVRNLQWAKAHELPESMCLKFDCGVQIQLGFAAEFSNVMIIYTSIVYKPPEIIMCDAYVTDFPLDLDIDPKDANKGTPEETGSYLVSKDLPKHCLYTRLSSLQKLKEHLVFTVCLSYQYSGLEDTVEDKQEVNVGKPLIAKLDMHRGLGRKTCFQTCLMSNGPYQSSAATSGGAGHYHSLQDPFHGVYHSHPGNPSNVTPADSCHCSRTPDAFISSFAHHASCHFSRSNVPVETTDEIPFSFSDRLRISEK", "assay": "MALT1 degradation assay (Western blot) in OCI-Ly3 cells", "assay_type": "cell-based", "set-up": "endogenous in cells; host or cells: OCI-Ly3", "conditions": "48 hours, normalized to Actin, relative to vehicle treated cells", "procedure": "(§1) In the experiments, OCI-Ly3 cells were grown for 6 hours in the presence of the indicated concentrations of Examples 1-6, 9, and 10. Proteins were extracted, analyzed by Western blot, and membranes were immunoblotted for MALT1, CRBN, and Actin. Table 3 provides the results of experimental data obtained from the example compounds of the present disclosure. In particular, OCI-Ly3 cells were grown for 48 hours in the presence of the indicated concentrations of Examples 1-19. Proteins were extracted, analyzed by Western blot, and membranes were immunoblotted for MALT1, CRBN, and Actin. Western blot bands were quantified using Image Lab software. Results were normalized to Actin expression and presented as % MALT1 degradation relative to vehicle treated cells.", "values": [{"compound": "CO[C@@H](C)c1c(NC(=O)Nc2cnc(-n3cc(CNC(=O)CCOCCOCCOCCOCCC(=O)N[C@H](C(=O)N4C[C@H](O)CC4C(=O)NCc4ccc(-c5scnc5C)cc4)C(C)(C)C)cn3)c(Cl)c2)cnc2cc(Cl)nn12", "note": "(stereo partly drawn) [Example 10]", "% MALT1 degradation at 1 µM": "no degradation"}, {"compound": "CO[C@@H](C)c1c(NC(=O)Nc2cc(Cl)cnc2OCCNC(=O)CCCCCCCCOc2cccc3c2C(=O)N(C2CCC(=O)NC2=O)C3=O)cnc2cc(Cl)nn12", "note": "(stereo partly drawn) [Example 16, N-(2-((5-Chloro-3-(3-(2-chloro-7-((S)-1-methoxyethyl)pyrazolo[1,5-a]pyrimidin-6-yl)ureido)pyridin-2-yl)oxy)ethyl)-9-((2-(2,6-dioxopiperidin-3-yl)-1,3-dioxoisoindolin-4-yl)oxy)nonanamide]", "% MALT1 degradation at 1 µM": "no degradation"}]}, {"molecular_target": "T1, MALT1", "assay": "MALT1 degradation assay (Western blot) in OCI-Ly3 cells", "assay_type": "cell-based", "set-up": "endogenous in cells; host or cells: OCI-Ly3", "conditions": "48 hours, normalized to Actin, relative to vehicle treated cells, read-out: % MALT1 Degradation at 1 μM", "procedure": "as §1", "units": {"% MALT1 degradation at 1 µM": "%"}, "values": [{"compound": "CO[C@@H](C)c1c(NC(=O)Nc2cnc(-n3cc(CNC(=O)CCOCCOCCOCCOCCNc4cccc5c4C(=O)N(C4CCC(=O)NC4=O)C5=O)cn3)c(Cl)c2)cnc2cc(Cl)nn12", "note": "(stereo partly drawn) [Example 2, N-((1-(3-Chloro-5-(3-(2-chloro-7-((S)-1-methoxyethyl)pyrazolo[1,5-a]pyrimidin-6-yl)ureido)pyridin-2-yl)-1H-pyrazol-4-yl)methyl)-1-((2-(2,6-dioxopiperidin-3-yl)-1,3-dioxoisoindolin-4-yl)amino)-3,6,9,12-tetraoxapentadecan-15-amide]", "% MALT1 degradation at 1 µM": "> 50"}, {"compound": "CO[C@@H](C)c1c(NC(=O)Nc2cc(Cl)cnc2OCCNC(=O)CCOCCOCCOCCOCCNc2cccc3c2C(=O)N(C2CCC(=O)NC2=O)C3=O)cnc2cc(Cl)nn12", "note": "(stereo partly drawn) [Example 3, N-(2-((5-Chloro-3-(3-(2-chloro-7-((S)-1-methoxyethyl)pyrazolo[1,5-a]pyrimidin-6-yl)ureido)pyridin-2-yl)oxy)ethyl)-1-((2-(2,6-dioxopiperidin-3-yl)-1,3-dioxoisoindolin-4-yl)amino)-3,6,9,12-tetraoxapentadecan-15-amide]", "% MALT1 degradation at 1 µM": "> 50"}, {"compound": "C[C@@H](c1c(NC(=O)Nc2cnc(-n3nccn3)c(Cl)c2)cnc2cc(Cl)nn12)N(C)C(=O)CCOCCOCCNc1cccc2c1CN(C1CCC(=O)NC1=O)C2=O", "note": "(stereo partly drawn) [Example 4, N—((S)-1-(2-Chloro-6-(3-(5-chloro-6-(2H-1,2,3-triazol-2-yl)pyridin-3-yl)ureido)pyrazolo[1,5-a]pyrimidin-7-yl)ethyl)-3-(2-(2-((2-(2,6-dioxopiperidin-3-yl)-1-oxoisoindolin-4-yl)amino)ethoxy)ethoxy)-N-methylpropanamide]", "% MALT1 degradation at 1 µM": "31 to 50"}, {"compound": "CO[C@@H](C)c1c(NC(=O)Nc2cnc(-n3cc(CNC(=O)CCOCCOCCNc4cccc5c4CN(C4CCC(=O)NC4=O)C5=O)cn3)c(Cl)c2)cnc2cc(Cl)nn12", "note": "(stereo partly drawn) [Example 5, N-((1-(3-Chloro-5-(3-(2-chloro-7-((S)-1-methoxyethyl)pyrazolo[1,5-a]pyrimidin-6-yl)ureido)pyridin-2-yl)-1H-pyrazol-4-yl)methyl)-3-(2-(2-((2-(2,6-dioxopiperidin-3-yl)-1-oxoisoindolin-4-yl)amino)ethoxy)ethoxy)propanamide]", "% MALT1 degradation at 1 µM": "10 to 30"}, {"compound": "CO[C@@H](C)c1c(NC(=O)Nc2cc(Cl)cnc2OCCNC(=O)CCOCCOCCNc2cccc3c2CN(C2CCC(=O)NC2=O)C3=O)cnc2cc(Cl)nn12", "note": "(stereo partly drawn) [Example 6, N-(2-((5-Chloro-3-(3-(2-chloro-7-((S)-1-methoxyethyl)pyrazolo[1,5-a]pyrimidin-6-yl)ureido)pyridin-2-yl)oxy)ethyl)-3-(2-(2-((2-(2,6-dioxopiperidin-3-yl)-1-oxoisoindolin-4-yl)amino)ethoxy)ethoxy)propanamide]", "% MALT1 degradation at 1 µM": "> 50"}, {"compound": "CC(C)c1c(NC(=O)Nc2cnc(-n3cc(CNC(=O)CCOCCOCCNc4cccc5c4CN(C4CCC(=O)NC4=O)C5=O)cn3)c(Cl)c2)cnc2cc(Cl)nn12", "note": "(stereo not drawn) [Example 7, N-((1-(3-Chloro-5-(3-(2-chloro-7-isopropylpyrazolo[1,5-a]pyrimidin-6-yl)ureido)pyridin-2-yl)-1H-pyrazol-4-yl)methyl)-3-(2-(2-((2-(2,6-dioxopiperidin-3-yl)-1-oxoisoindolin-4-yl)amino)ethoxy)ethoxy)propanamide]", "% MALT1 degradation at 1 µM": "31 to 50"}, {"compound": "Cc1c(NC(=O)Nc2cnc(-n3cc(CNC(=O)CCOCCOCCNc4cccc5c4CN(C4CCC(=O)NC4=O)C5=O)cn3)c(Cl)c2)cnc2ccc(Br)cc12", "note": "(stereo not drawn) [Example 8, N-((1-(5-(3-(6-Bromo-4-methylquinolin-3-yl)ureido)-3-chloropyridin-2-yl)-1H-pyrazol-4-yl)methyl)-3-(2-(2-((2-(2,6-dioxopiperidin-3-yl)-1-oxoisoindolin-4-yl)amino)ethoxy)ethoxy)propanamide]", "% MALT1 degradation at 1 µM": "31 to 50"}, {"compound": "CO[C@@H](C)c1c(NC(=O)Nc2cc(Cl)cnc2OCCNC(=O)CCOCCOCCOCCOCCC(=O)N[C@H](C(=O)N2C[C@H](O)CC2C(=O)NCc2ccc(-c3scnc3C)cc2)C(C)(C)C)cnc2cc(Cl)nn12", "note": "(stereo partly drawn) [Example 9, N^1-(2-((5-Chloro-3-(3-(2-chloro-7-((S)-1-methoxyethyl)pyrazolo[1,5-a]pyrimidin-6-yl)ureido)pyridin-2-yl)oxy)ethyl)-N^16-((2S)-1-((4R)-4-hydroxy-2-((4-(4-methylthiazol-5-yl)benzyl)carbamoyl)pyrrolidin-1-yl)-3,3-dimethyl-1-oxobutan-2-yl)-4,7,10,13-tetraoxahexadecanediamide]", "% MALT1 degradation at 1 µM": "10 to 30"}, {"compound": "CO[C@@H](C)c1c(NC(=O)Nc2cc(Cl)cnc2OCCNC(=O)CCOCCOCCOCCOCCNc2cccc3c2CN(C2CCC(=O)NC2=O)C3=O)cnc2cc(Cl)nn12", "note": "(stereo partly drawn) [Example 11, N-(2-((5-Chloro-3-(3-(2-chloro-7-((S)-1-methoxyethyl)pyrazolo[1,5-a]pyrimidin-6-yl)ureido)pyridin-2-yl)oxy)ethyl)-1-((2-(2,6-dioxopiperidin-3-yl)-1-oxoisoindolin-4-yl)amino)-3,6,9,12-tetraoxapentadecan-15-amide]", "% MALT1 degradation at 1 µM": "> 50"}, {"compound": "CO[C@@H](C)c1c(NC(=O)Nc2cc(Cl)cnc2OCCNC(=O)CCOCCNc2cccc3c2CN(C2CCC(=O)NC2=O)C3=O)cnc2cc(Cl)nn12", "note": "(stereo partly drawn) [Example 12, N-(2-((5-Chloro-3-(3-(2-chloro-7-((S)-1-methoxyethyl)pyrazolo[1,5-a]pyrimidin-6-yl)ureido)pyridin-2-yl)oxy)ethyl)-3-(2-((2-(2,6-dioxopiperidin-3-yl)-1-oxoisoindolin-4-yl)amino)ethoxy)piopanamide]", "% MALT1 degradation at 1 µM": "31 to 50"}, {"compound": "CO[C@@H](C)c1c(NC(=O)Nc2cc(Cl)cnc2OCCNC(=O)CCOCCOCCNc2cccc3c2C(=O)N(C2CCC(=O)NC2=O)C3=O)cnc2cc(Cl)nn12", "note": "(stereo partly drawn) [Example 14, N-(2-((5-Chloro-3-(3-(2-chloro-7-((S)-1-methoxyethyl)pyrazolo[1,5-a]pyrimidin-6-yl)ureido)pyridin-2-yl)oxy)ethyl)-3-(2-(2-((2-(2,6-dioxopiperidin-3-yl)-1,3-dioxoisoindolin-4-yl)amino)ethoxy)ethoxy)propanamide]", "% MALT1 degradation at 1 µM": "> 50"}, {"compound": "CO[C@@H](C)c1c(NC(=O)Nc2cc(Cl)cnc2OCCNC(=O)CCOCCOCCOCCOCCOCCOCCNc2cccc3c2C(=O)N(C2CCC(=O)NC2=O)C3=O)cnc2cc(Cl)nn12", "note": "(stereo partly drawn) [Example 15, N-(2-((5-Chloro-3-(3-(2-chloro-7-((S)-1-methoxyethyl)pyrazolo[1,5-a]pyrimidin-6-yl)ureido)pyridin-2-yl)oxy)ethyl)-1-((2-(2,6-dioxopiperidin-3-yl)-1,3-dioxoisoindolin-4-yl)amino)-3,6,9,12,15,18-hexaoxahenicosan-21-amide]", "% MALT1 degradation at 1 µM": "> 50"}, {"compound": "C[C@@H](c1c(NC(=O)Nc2cnc(-n3nccn3)c(Cl)c2)cnc2cc(Cl)nn12)N(C)C(=O)CCOCCOCCOCCN1CCN(Cc2ccc(COc3cccc4c3CN([C@H]3CCC(=O)NC3=O)C4=O)cc2)CC1", "note": "[Example 17, N-((S)-1-(2-Chloro-6-(3-(5-chloro-6-(2H-1,2,3-triazol-2-yl)pyridin-3-yl)ureido)pyrazolo[1,5-a]pyrimidin-7-yl)ethyl)-3-(2-(2-(2-(4-(4-(((2-((S)-2,6-dioxopiperidin-3-yl)-1-oxoisoindolin-4-yl)oxy)methyl)benzyl)piperazin-1-yl)ethoxy)ethoxy)ethoxy)-N-methylpropanamide]", "% MALT1 degradation at 1 µM": "> 50"}]}]}
